# Laboratory results reported in patent US10231956B2, “3-(1H-pyrrolo[3,2-C]pyridin-2-YL)-1 H-pyrazolo[4,3-B]pyridines and therapeutic uses thereof” (Samumed, LLC, priority 2015, dated 2019).
# Legend:
# Type in all cases: cell-based
# [1] = test system: Wnt activity (Sp5-Luc reporter, SW480 colon carcinoma cells); assay: Sp5-Luc reporter gene screening assay for Wnt activity in SW480 cells; conditions: Homo sapiens; for EC50: luminescence, overnight incubation
# Outline: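 SW480 cells stably transduced with an Sp5 promoter (eight TCF/LEF sites)–firefly luciferase lentiviral reporter, plated at 4,000 cells/well in 1% FBS medium with compounds (10-point 1:3 series from 10 μM, 0.1% DMSO) overnight at 37 °C. BrightGlo luminescence normalised to DMSO; EC50 by four-parameter fit, else % inhibition at 10 μM.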
# [2] = test system: SW480 colon cancer cells; assay: Cell viability assay (CellTiter-Blue) in SW480 colon cancer cells; conditions: Homo sapiens; for EC50: 96 h, four days, CellTiter-Blue; for inhibition at 10 µM: given for EC50 >10 μM, read-out: percent inhibition at 10 μM
# Outline: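 Approximately 2×10^3 SW480 cells per well are seeded with compound (8 points, threefold steps, top 10 μM) and incubated four days at 37 °C. CellTiter-Blue is then added for about 3 h and fluorescence read. Non-linear regression gives EC50; for values beyond 10 μM, percent inhibition at that concentration is listed.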
# [3] = test system: primary human mesenchymal stem cells (hMSCs); assay: Induction of chondrogenesis in primary human mesenchymal stem cells (nodule count); conditions: 144 h, 6 days; for Emax: TGF-β3 10 ng/mL as positive control, read-out: Max. Activity as % TGF-β3 activity; for EC50: concentration required to induce 50% levels of chondrogenesis vs TGF-β3, read-out: Conc (nM) of 50% TGF-β3 activity
# Protocol: Representative compounds were screened using primary human mesenchymal stem cells (hMSCs) to determine their ability to induce chondrogenesis (process by which cartilage is developed).
# Human Mesenchymal Stem Cell Culture: Primary human mesenchymal stem cells (hMSCs) were purchased from Lonza (Walkersville, Md.) and expanded in Mesenchymal Stem Cell Growth Media (Lonza). Cells between passage 3 and 6 were used for the experiments.
# Compound Screening: Each compound was dissolved in DMSO as a 10 mM stock and used to prepare compound source plates. Serial dilution (1:3, 6-point dose-response curves from 2700 nM to 10 nM) and compound transfer was performed using the ECHO 550 (Labcyte, Sunnyvale, Calif.) into 96-well clear bottom assay plates (Greiner Bio-One) with appropriate DMSO backfill for a final DMSO concentration of 0.03%. hMSCs were plated at 20,000 cells/well in 250 μL/well Incomplete Chondrogenic Induction Medium (Lonza; DMEM, dexamethasone, ascorbate, insulin-transferrin-selenium [ITS supplement], gentamycin-amphotericin [GA-1000], sodium pyruvate, proline and L-glutamine). TGF-β3 (10 ng/mL) was used as a positive control for differentiation while negative control wells were treated with 75 nL DMSO for normalization and calculating EC50 values. Cells were incubated at 37° C. and 5% CO2 for 6 days. To image chondrogenic nodules, the cells were fixed using 4% formaldehyde (Electron Microscopy Sciences), and stained with 2 μg/mL Rhodamine B (Sigma-Aldrich) and 20 μM Nile Red (Sigma-Aldrich) [Johnson K., et. al, A Stem Cell-Based Approach to Cartilage Repair, Science, (2012), 336(6082), 717-721]. The nodules imaged (4 images per well at 4× magnification) by excitation at 531 nm and emission at 625 nm and quantified using the CellInsight CX5 (Thermo Scientific). Number of nodules in each well was normalized to the average of 3 DMSO treated wells on the same plate using Excel (Microsoft Inc.). The normalized averages (fold change over DMSO) of 3 replicate wells for each compound concentration were calculated. Due to solubility limitations of some of the compounds, curve fitting was incomplete leading to inaccurate EC50 determinations.
# Using TGF-β3 as a positive control, the concentration of representative compounds required to induce 50% levels of chondrogenesis is reported. In addition, the maximum activity of each compound and the respective dose that each compound reached maximum chondrogenesis activity is reported.
EC50 [1] [µM],EC50 [2] [µM],EC50 [3] [nM],Compound,Emax [3] [%],inhibition at 10 µM [2] [%],"inhibition at 10 µM ([1]; given for EC50 >10 μM, 10 μM, read-out: percent inhibition at 10 μM) [%]"
1.14,1.42,10,"CS(=O)(=O)NCc1cc(F)cc(-c2nccc3[nH]c(-c4n[nH]c5ccc(-c6cncc(NC(=O)C7CCCCC7)c6)nc45)cc23)c1 [Compound 499, N-(5-(3-(4-(3-Fluoro-5-(methylsulfonamidomethyl)phenyl)-1H-pyrrolo[3,2-c]pyridin-2-yl)-1H-pyrazolo[4,3-b]pyridin-5-yl)pyridin-3-yl)cyclohexanecarboxamide]",50,,
0.502,0.81,10,"CS(=O)(=O)NCc1cc(F)cc(-c2nccc3[nH]c(-c4n[nH]c5ccc(-c6cncc(CN7CCC(F)(F)C7)c6)nc45)cc23)c1 [Compound 502, N-(3-(2-(5-(5-((3,3-Difluoropyrrolidin-1-yl)methyl)pyridin-3-yl)-1H-pyrazolo[4,3-b]pyridin-3-yl)-1H-pyrrolo[3,2-c]pyridin-4-yl)-5-fluorobenzyl) methanesulfonamide]",148,,
0.745,> 10,2700,"CS(=O)(=O)NCc1cc(F)cc(-c2nccc3[nH]c(-c4n[nH]c5ccc(-c6cncnc6)nc45)cc23)c1 [Compound 503, N-(3-Fluoro-5-(2-(5-(pyrimidin-5-yl)-1H-pyrazolo[4,3-b]pyridin-3-yl)-1H-pyrrolo [3,2-c]pyridin-4-yl)benzyl)methanesulfonamide]",51,15.3,
2.14,> 10,,"CS(=O)(=O)NCc1cc(F)cc(-c2nccc3[nH]c(-c4n[nH]c5ccc(-c6ccccn6)nc45)cc23)c1 [Compound 504, N-(3-Fluoro-5-(2-(5-(pyridin-2-yl)-1H-pyrazolo[4,3-b]pyridin-3-yl)-1H-pyrrolo[3,2-c]pyridin-4-yl)benzyl)methanesulfonamide]",24,44.7,
3.83,5.22,10,"Fc1ccc(-c2nccc3[nH]c(-c4n[nH]c5ccc(-c6cncc(OC7CCNCC7)c6)nc45)cc23)cc1 [Compound 528, 3-(4-(4-Fluorophenyl)-1H-pyrrolo[3,2-c]pyridin-2-yl)-5-(5-(piperidin-4-yloxy)pyridin-3-yl)-1H-pyrazolo[4,3-b]pyridine]",54,,
0.59,1.27,100,"Fc1ccccc1-c1nccc2[nH]c(-c3n[nH]c4ccc(-c5cn[nH]c5)nc34)cc12 [Compound 539, 3-(4-(2-Fluorophenyl)-1H-pyrrolo[3,2-c]pyridin-2-yl)-5-(1H-pyrazol-4-yl)-1H-pyrazolo[4,3-b]pyridine]",174,,
0.1,> 10,30,"Cc1ncc(-c2ccc3[nH]nc(-c4cc5c(-c6ccncc6)nccc5[nH]4)c3n2)n1C [Compound 573, 5-(1,2-Dimethyl-1H-imidazol-5-yl)-3-(4-(pyridin-4-yl)-1H-pyrrolo[3,2-c]pyridin-2-yl)-1H-pyrazolo[4,3-b]pyridine]",104,25.6,
2.66,0.3,10,"c1cc2[nH]c(-c3n[nH]c4ccc(-c5cncc(OC6CCCCC6)c5)nc34)cc2c(N2CCCCC2)n1 [Compound 607, 5-(5-(Cyclohexyloxy)pyridin-3-yl)-3-(4-(piperidin-1-yl)-1H-pyrrolo[3,2-c]pyridin-2-yl)-1H-pyrazolo[4,3-b]pyridine]",163,,
> 10,> 10,,"O=C(CC1CCNCC1)Nc1cncc(-c2ccc3[nH]nc(-c4cc5c(N6CCCCC6)nccc5[nH]4)c3n2)c1 [Compound 609, N-(5-(3-(4-(Piperidin-1-yl)-1H-pyrrolo[3,2-c]pyridin-2-yl)-1H-pyrazolo[4,3-b]pyridin-5-yl)pyridin-3-yl)-2-(piperidin-4-yl)acetamide]",22,9.7,13.3
3.91,2.07,,"c1cc2[nH]c(-c3n[nH]c4ccc(-c5cncc(OCCN6CCCC6)c5)nc34)cc2cn1 [Compound 658, 5-(5-(2-(Pyrrolidin-1-yl)ethoxy)pyridin-3-yl)-3-(1H-pyrrolo[3,2-c]pyridin-2-yl)-1H-pyrazolo[4,3-b]pyridine]",23,,
